Entries after “also recorded” stand apart in the source; their conditions may differ.
Legend:
[1] = in vivo; cited from earlier work
[2] = cited from earlier work
Hermissenda Crassicornis = test: Pavlovian conditioning of Hermissenda (retention of conditioned response); type: in vivo; details: for concentration that inhibited acquisition and behavioral retention: all training conditions tested
Experimental: Bryostatin exposure—Specimens of Hermissenda Crassicornis were maintained in artificial sea water (ASW) at 15° for three days in perforated 50-ml conical centrifuge tubes before starting experiments. Bryostatin, purified from the marine bryozoan Bugula neritina, was dissolved in EtOH and diluted to its final concentration in ASW. […] For selected experiments lactacysteine (10 μM) or anisomycin was added to the ASW.
Bryostatin effects on Hermissenda behavior and biochemistry were produced by adding the drug to the bathing medium within an 8 cm long, 1 cm diameter test tube housing each individual animal.
Pavlovian conditioning of Hermissenda involves repeated pairings of a neutral stimulus, light, with an unconditioned stimulus, orbital shaking. (See, Lederhendler et al. (24) and Epstein et al. (6)). A rotation/shaking stimulus excites the statocyst hair cells and thereby elicits an unconditioned response: a brisk contraction of the muscular undersurface called a foot, accompanied by adherence or “clinging” to the surface that supports the foot. Before conditioning, light elicits a weakly positive phototaxis accompanied by lengthening of the foot. After sufficient light-rotation pairings, light no longer elicits phototaxis, but instead elicits a new response (24): the “clinging” and foot shortening previously elicited only by the unconditional stimulus (FIG. 1). Thus, the meaning of the unconditioned stimulus, rotation or orbital shaking, has been transferred to the conditioned stimulus and is manifested by a light-elicited foot contraction—a negative change of foot length. This conditioned response to light can last for weeks, is not produced by randomized light and rotation, is stimulus-specific, and shares the other defining characteristics of mammalian Pavlovian Conditioning.
Pavlovian conditioning of Hermissenda has well-defined training parameters that produce progressively longer-lasting retention of the learned conditioned response. Two training events (2 TE) of paired light and orbital shaking (see “Methods”), for example, induce a learned conditioned response (light-elicited foot contraction or shortening) that persists without drug treatment for approximately 7 minutes. Four to six training events (4-6 TE) induce a conditioned response that persists up to several hours, but disappears approximately by 1 day after training. Nine TE produces long-term associative memory lasting many days and often up to two weeks.

PKC [3] = details: cited from earlier work
PKC [4] = test: Protein kinase C assay in cultured hippocampal neurons; type: cell-based, Rat
Experimental: Cells were homogenized by sonication (5 sec, 25 W) in 100 μl of 10 mM Tris-HCl pH 7.4 buffer containing 1 mM EGTA, 1 mM PMSF, and 50 mM NaF. Homogenate was transferred to a polyallomer centrifuge tube and was centrifuged at 100,000×g for 10 min at 4°. The supernatant was removed and immediately frozen on dry ice. The particulate fraction was resuspended by sonication in 100 μl of the same buffer and stored at −80°. To measure PKC, 10 μl of cytosol or particulate fraction was incubated for 15 min at 37° in the presence of 10 μM histones, 4.89 mM CaCl2, 1.2 μg/μl phosphatidyl-L-serine, 0.18 μg/μl 1,2-dioctanoyl-sn-glycerol, 10 mM MgCl2, 20 mM HEPES (pH 7.4), 0-8 mM EDTA, 4 mM EGTA, 4% glycerol, 8 μg/ml aprotinin, 8 μg/ml leupeptin, and 2 mM benzamidine. 0.5 μCi [γ^32P]ATP was added and ^32P-phosphoprotein formation was measured by adsorption onto phosphocellulose as described previously (25). This assay was used with slight adjustments for either Hermissenda nervous system homogenates or cultured mammalian neuron homogenates
Rat hippocampal H19-7/IGF-IR cells (ATCC) were plated onto poly-L-lysine coated plates and grown at 35° in DMEM/10% FCS for several days until approx. 50% coverage was obtained. The cells were then induced to differentiate into a neuronal phenotype by replacing the medium with 5 ml N2 medium containing 10 ng/ml basic fibroblast growth factor and grown in T-25 flasks at 39° C. (26). Various concentrations of bryostatin (0.01-1.0 nM) were then added in 10 μl aqueous solution. After a specified interval, the medium was removed and the cells were washed with PBS, removed by gentle scraping, and collected by centrifugation at 1000 rpm for 5 min.
To further examine biochemical consequences of repeated exposures to bryostatin, rat hippocampal neurons were studied after they had been immortalized by retroviral transduction of temperature sensitive tsA5CSV40 large T antigen (25). These differentiate to have a neuronal phenotype when induced by basic fibroblast growth factor in N2 medium (26) and express a normal complement of neuronal proteins, including PKC.

calexcitin = test: Calexcitin immunostaining in B-photoreceptors; type: in vivo, Hermissenda
Experimental: Following experimental treatments and testing, animals were rapidly decapitated, the central nervous systems (CNS) removed and then fixed in 4% para-formaldehyde in 20 mM Tris-buffered (pH 8) natural seawater (NSW; 0.2 μm micropore-filtered). The CNSs were then embedded in polyester wax (20), sectioned (6 μm) and immunostained using a biotinylated secondary antibody coupled to avidin-bound microperoxidase (ABC method, Vector), Aminoethylcarbazole (AEC) was used as the chromogen. The primary polyclonal antibody (designated 25U2) was raised in rabbits from the full length calexcitin protein extracted from squid optic lobes. Gray-scale intensity measures were done from digital photomicrographs on circumscribed cytoplasmic areas of the B-photoreceptors minus the same background area (non-staining neuropile).

sAPP secretion = sAPP secretion / alpha-secretase APP processing; type: cell-based; details: 0.1 nM bryostatin-1
[5] = single bryostatin 0.28 nM for 30 minutes

In the case of CCC/C=C/C=C/C(=O)O[C@H]1/C(=C/C(=O)OC)C[C@H]2C[C@H]([C@@H](C)O)OC(=O)C[C@H](O)C[C@@H]3C[C@H](OC(C)=O)C(C)(C)[C@](O)(C[C@@H]4C/C(=C/C(=O)OC)C[C@H](/C=C/C(C)(C)[C@]1(O)O2)O4)O3 [bryostatin, bryostatin-1], the “rat spatial maze learning” value [1] is listed as “enhanced”, the tolerability ([2]; 20 μg/m^2 once per week for 3 weeks) is listed as “well tolerated and were not associated with myalgia or other side effects” and the maximum-tolerated dose ([2]; 1 hour i.v. infusion once every 2 weeks for 6 weeks) is listed as 50 μg/m^2. The maximum tolerated dose ([2]; once per week for 8 weeks) was 25 μg/m^2, the “myalgia reported, of all treated patients” value ([2]; phase II clinical trials) was 10 to 87% and the retention (Hermissenda Crassicornis; 2-TEs with two bryostatin exposures) was “more than one week”. The “retention of behavioral conditioning tested after 4 h” value (Hermissenda Crassicornis; 2-paired TEs, bryostatin 0.25 ng/ml from 10-min dark adaptation and 4 h thereafter) was “demonstrated retention of the behavioral conditioning”, the memory retention (Hermissenda Crassicornis; 2 TE plus bryostatin, 4 hours during and after training) was “lasting hours; also recorded: several hours” and the memory retention (Hermissenda Crassicornis; 4 TEs plus bryostatin) was over 24 h. The memory duration (Hermissenda Crassicornis; 6 TE with bryostatin (only hours without)) was “many days”, the memory retention (Hermissenda Crassicornis; 4 hour bryostatin on the day preceding training and on the day of 2 TE) was “more than one day” and the retention (Hermissenda Crassicornis; 20 h pre-exposure to bryostatin 0.25 ng/ml, 4-paired TE) was “persisted”. For the same compound, the retention (Hermissenda Crassicornis; 20 hr bryostatin 0.25 ng/ml exposure, 2-paired TE) was at most 48 h, the “low doses that markedly enhanced memory” value (Hermissenda Crassicornis; after 2, 4, or 6 training trials) was 0.1 to 0.25 ng/mL and the “concentration that inhibited acquisition and behavioral retention” value (Hermissenda Crassicornis) was “greater than 1.0 ng/ml”. For the same compound, the “concentration that inhibited acquisition and behavioral retention” value (Hermissenda Crassicornis; listed as Bryostatin) was at least 1.0 ng/mL, the “conditioned response (foot contraction) tested at 4 h” value (Hermissenda Crassicornis; bryostatin 0.25 ng/ml before 6-TE conditioning and 4 hours thereafter) was “produced a positive CR” and the “effect on retention performance” value (Hermissenda Crassicornis; bryostatin <0.50 ng/ml, 9-paired TEs) was “no demonstrable effects on retention performance”. The “memory retention versus 4 hour exposures” value (Hermissenda Crassicornis; bryostatin exposure for 8 to 20 hours followed by 2 TE) was “not sufficient”, the “behavioral retention lost after” value (Hermissenda Crassicornis; bryostatin only 4 h, 2-paired TEs 24 hrs later) was at most 24 h and the conditioned response (Hermissenda Crassicornis; randomized presentations of light and rotation, with bryostatin) was “produced no conditioned response”. The “long-term retention (tested with CS alone at 4 h, then 24-h intervals)” value (Hermissenda Crassicornis; sub-optimal 4- and 6-paired TEs, bryostatin 0.25 ng/ml from dark adaptation and for 4 hours) was “all demonstrated long-term retention”, the “concentrations that augment acquisition and memory retention” value (Hermissenda Crassicornis; sub-optimal (4 TE) training) was under 0.50 ng/mL and the “long-term retention (LTR) post-training” value (Hermissenda Crassicornis; three successive days of 4-h bryostatin 0.25 ng/ml, one day later 2-TEs) was at least 96 h. For the same compound, the long-term retention (Hermissenda Crassicornis; two successive days of 4-h bryostatin 0.25 ng/ml, 2-paired TEs) was “at least 6 days”, the “concentrations that activate PKC” value (PKC [3]) was “sub-nanomolar” and the “cytosolic PKC activity” value (PKC [4]; first 4 hours after single bryostatin exposure) was “no significant alteration; also recorded: not altered”. For the same compound, the “effect of second exposure on downregulation of membrane-bound PKC” value (PKC [4]; second 30-minute exposure after 2- to 4-hour delay) was “eliminated the significant downregulation; also recorded: significantly attenuates the downregulation”, the “cytosolic PKC activity” value (PKC [4]; second bryostatin exposure delayed until 4 hours after the first) was “increased above baseline” and the “cytosolic PKC activity” value (PKC [4]; second bryostatin exposure within 2 hr of the first) was “significant reduction of PKC activity”. For the same compound, the “membrane-bound PKC after brief translocation” value (PKC [4]; [5]) was “prolonged downregulation”, the “translocation of PKC from cytosol to particulate fraction” value (PKC [4]; [5]) was “approx 60%” and the CE immunostaining (calexcitin; 24 hours after 1 bryostatin exposure for four hours, no conditioning) was “not elevated”. For the same compound, the CE immunostaining (calexcitin; 24 hours after 2 bryostatin exposures on two successive days, no conditioning) was “greater residual CE immunostaining”, the “levels of calexcitin in B-photoreceptors” value (calexcitin; bryostatin alone 4-hr over each of 1, 2, and 3 days, measured 24 hours after each) was “progressively increased the levels of calexcitin” and the CE immunostaining (calexcitin; bryostatin plus 6 TE) was “comparable to that observed after 9 TE”. For the same compound, the calexcitin levels increase (calexcitin; paired training (6PTE) with bryostatin 0.25) was “greater than 4.3 ×”, the “rise in calexcitin (CE) immuno-intensity” value (calexcitin; random training (4RTE) with bryostatin 0.25) was 2.0 and the CE immunostaining (calexcitin; three 4 hour bryostatin exposures, 2 TE on subsequent day, 24 hours later) was “approached the levels previously observed immediately following 9 TE”. The calexcitin level (calexcitin; two 4-hr bryostatin exposures (0.25 ng/ml) on successive days, then 2-paired TEs) was “significantly increased calexcitin to levels associated with 9-paired TEs; also recorded: raise calexcitin levels to the amount associated with consolidated long-term memory” and the sAPP secretion (sAPP secretion) was “dramatic increase of sAPP secretion”.
